Read-outs that look alike come from different tables or passages of the source.
Columns and labels:
5-Lipoxygenase = target: T1, 5-Lipoxygenase (Rattus norvegicus, UniProt P12527); experiment: ARBL whole cell 5-lipoxygenase assay (LTB4 formation in RBL-1 cells, A23187 stimulated); type: cell-based; conditions: for IC50: read-out: ARBL IC50 (inhibition of LTB4 formation)
T1 construct: host or cells: RBL-1 rat basophilic leukemia cells
T1 sequence (P12527 1-673): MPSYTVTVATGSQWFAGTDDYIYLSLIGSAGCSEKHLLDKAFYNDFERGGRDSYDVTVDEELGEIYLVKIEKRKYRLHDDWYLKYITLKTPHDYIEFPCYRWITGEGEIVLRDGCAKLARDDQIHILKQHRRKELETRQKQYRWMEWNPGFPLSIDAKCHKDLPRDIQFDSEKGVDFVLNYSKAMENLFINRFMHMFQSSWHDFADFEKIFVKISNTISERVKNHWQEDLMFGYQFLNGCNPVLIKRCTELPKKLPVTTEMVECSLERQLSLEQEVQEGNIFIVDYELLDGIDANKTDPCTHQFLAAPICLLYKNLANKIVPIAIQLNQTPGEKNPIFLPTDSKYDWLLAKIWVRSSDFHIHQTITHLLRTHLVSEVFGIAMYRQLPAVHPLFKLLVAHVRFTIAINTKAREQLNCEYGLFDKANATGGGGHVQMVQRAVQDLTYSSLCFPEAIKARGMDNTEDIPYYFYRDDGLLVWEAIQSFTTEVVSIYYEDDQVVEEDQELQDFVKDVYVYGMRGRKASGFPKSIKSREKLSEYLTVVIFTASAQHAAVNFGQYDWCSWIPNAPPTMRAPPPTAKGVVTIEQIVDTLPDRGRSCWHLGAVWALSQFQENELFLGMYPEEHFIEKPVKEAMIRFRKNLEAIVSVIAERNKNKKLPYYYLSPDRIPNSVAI
Experimental: (§1) ARBL/ARBC Whole Cell 5-Lipoxygenase and Cyclooxygenase Assays
(§2) The rat basophilic leukemia cell line (RBL-1) was obtained from the American Type Culture Collection (Rockville, MD).
(§3) Radioimmunoassay (RIA) kits of LTB4 and PGF2α were obtained from Amersham (Arlington Heights, IL) and Seragen (Boston, MA), respectively.
(§4) RBL-1 cells are grown in suspension culture in Eagle's minimum essential medium supplemented with 12% fetal bovine serum at 37° C. in an incubator supplied with air-5% carbon dioxide. Cells are harvested by centrifugation. They are washed with cold phosphate buffered saline pH 7.4 (PBS; NaCl, 7.1 g; Na2 HPO4, 1.15 g; KH2 PO4, 0.2 g; and KCl, 0.2 g/l). Cells are finally suspended in PBS containing 1.0 mM calcium at a density of 2×10^6 cells/ml. Cells are incubated with and without test agent (in DMSO) (1% DMSO is without effect on arachidonic acid metabolism) for ten minutes at room temperature. Calcium ionophore A23187 (5 μM) is added and cells are incubated for seven minutes at 37° C. The reaction is stopped by chilling the tubes on ice for ten minutes. Cells are separated by centrifugation and the supernatant is stored at -20° C. Aliquots (100 μl) are analyzed for LTB4 and PGF2α using radioimmunoassay kits as provided by the supplier.
(§5) Tables 1-4 contain biochemical data obtained from this whole cell assay either as IC50 s which are calculated as the amount of test compound causing 50% inhibition of LTB4 or PGF2α formation or % inhibition of LTB4 or PGF2α at the indicated amount expressed as μM.

Cyclooxygenase = target: T2, Cyclooxygenase (Rattus norvegicus, UniProt Q63921); experiment: ARBC whole cell cyclooxygenase assay (PGF2α formation in RBL-1 cells, A23187 stimulated); type: cell-based; conditions: for IC50: read-out: ARBC IC50 (inhibition of PGF2α formation)
T2 construct: host or cells: RBL-1 rat basophilic leukemia cells
T2 sequence (Q63921 27-602): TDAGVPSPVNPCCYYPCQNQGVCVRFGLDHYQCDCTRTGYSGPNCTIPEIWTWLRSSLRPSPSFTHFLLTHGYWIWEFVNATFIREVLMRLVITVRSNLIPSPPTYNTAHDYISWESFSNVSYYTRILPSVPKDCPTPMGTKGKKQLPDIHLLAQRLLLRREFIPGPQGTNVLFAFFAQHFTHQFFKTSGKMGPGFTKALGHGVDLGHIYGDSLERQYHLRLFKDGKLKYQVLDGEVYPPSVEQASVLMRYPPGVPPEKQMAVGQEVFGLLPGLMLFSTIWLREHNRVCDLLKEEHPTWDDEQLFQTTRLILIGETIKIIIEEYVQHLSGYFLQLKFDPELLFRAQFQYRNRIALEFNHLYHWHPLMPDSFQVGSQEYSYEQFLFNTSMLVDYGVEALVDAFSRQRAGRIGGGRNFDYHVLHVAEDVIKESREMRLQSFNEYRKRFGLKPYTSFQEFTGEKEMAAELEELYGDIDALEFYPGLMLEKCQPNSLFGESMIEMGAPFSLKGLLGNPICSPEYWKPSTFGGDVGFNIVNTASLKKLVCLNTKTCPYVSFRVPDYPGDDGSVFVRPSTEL
Experimental: as §1, §2, §3, §4, §5

[1] = RBL-1 cells, read-out: ARBL % inhibition of LTB4
[2] = RBL-1 cells, read-out: ARBC % inhibition of PGF2α
[3] = RBL-1, Table 1, read-out: ARBC % inhibition (N)

Compound: ONCc1ccc2c(c1)Cc1ccccc1-2 [Example 1, N-Hydroxy-9H-fluorene-2-methanamine]
- inhibition at 16 µM (5-Lipoxygenase; [1]): 97%
- inhibition at 16 µM (Cyclooxygenase; [2]): 76%

Compound: CCOC(=O)C(=O)N(O)Cc1ccc2c(c1)Cc1ccccc1-2 [Example 2, (9H-Fluoren-2-ylmethyl)hydroxyamino-oxo-acetic acid, ethyl ester]
- inhibition at 16 µM (5-Lipoxygenase; [1]): 96%
- inhibition at 16 µM (Cyclooxygenase; [3]): < 40%

Compound: O=C(O)C(=O)N(O)Cc1ccc2c(c1)Cc1ccccc1-2 [Example 3, (9H-Fluoren-2-ylmethyl)hydroxyamino-oxo-acetic acid]
- inhibition at 16 µM (5-Lipoxygenase; RBL-1, Table 1, read-out: ARBL % inhibition (N)): < 40%
- inhibition at 16 µM (Cyclooxygenase; [3]): < 40%

Compound: CC(=O)N(O)Cc1ccc2c(c1)Cc1ccccc1-2 [Example 4, N-(9H-Fluoren-2-ylmethyl)-N-hydroxy-acetamide]
- inhibition at 16 µM (5-Lipoxygenase; [1]): 100%
- IC50 (Cyclooxygenase; RBL-1 cells): 12 µM

Compound: CC(C)C(=O)N(O)Cc1ccc2c(c1)Cc1ccccc1-2 [Example 5, N-(9H-Fluoren-2-ylmethyl)-N-hydroxy-2-methyl-propanamide]
- inhibition at 16 µM (5-Lipoxygenase; [1]): 99%
- inhibition at 16 µM (Cyclooxygenase; [3]): < 40%

Compound: CNC(=O)N(O)Cc1ccc2c(c1)Cc1ccccc1-2 [Example 6, N-(9H-Fluoren-2-ylmethyl)-N-hydroxy-N'-methylurea]
- inhibition at 16 µM (5-Lipoxygenase; [1]): 100%
- inhibition at 16 µM (Cyclooxygenase; [3]): < 40%

Compound: CC(NO)c1ccc2c(c1)Cc1ccccc1-2 (stereo not drawn) [Example 7, N-Hydroxy-α-methyl-9H-fluorene-2-methanamine]
- inhibition at 16 µM (5-Lipoxygenase; [1]): 100%
- inhibition at 16 µM (Cyclooxygenase; [2]): 89%

Compound: CNC(=O)N(O)C(C)c1ccc2c(c1)Cc1ccccc1-2 (stereo not drawn) [Example 8, N-(1-(9H-Fluoren-2-yl)ethyl)-N-hydroxy-N'-methylurea]
- IC50 (5-Lipoxygenase; RBL-1 cells): 0.91 µM
- inhibition at 16 µM (Cyclooxygenase; [3]): < 40%

Compound: CCNC(=O)N(O)C(C)c1ccc2c(c1)Cc1ccccc1-2 (stereo not drawn) [Example 9, N'-Ethyl-N-(1-(9H-fluoren-2-yl)ethyl)-N-hydroxyurea]
- inhibition at 16 µM (5-Lipoxygenase; [1]): 100%
- inhibition at 16 µM (Cyclooxygenase; [2]): 49%

Compound: CNC(=S)N(O)C(C)c1ccc2c(c1)Cc1ccccc1-2 (stereo not drawn) [Example 10, N-(1-(9H-Fluoren-2-yl)ethyl)-N-hydroxy-N'-methylthiourea]
- inhibition at 16 µM (5-Lipoxygenase; [1]): 100%
- inhibition at 16 µM (Cyclooxygenase; [2]): 59%

Compound: COc1ccc2c(c1)c(CN(O)C(C)=O)c(C)n2C(=O)c1ccc(Cl)cc1 [Example 63, N-[[1-(4-Chlorobenzoyl)-5-methoxy-2-methyl-1H-indole-3-yl]methyl]-N-hydroxyacetamide]
- IC50 (Cyclooxygenase; RBL-1 cells): 15 µM

Compound: COc1ccc2c(c1)c(CN(O)C(=O)CCC(=O)O)c(C)n2C(=O)c1ccc(Cl)cc1 [Example 66, 4-[[[1-(4-Chlorobenzoyl)-5-methoxy-2-methyl-1H-indol-3-yl]methyl]hydroxyamino]-4-oxo-butanoic acid]
- inhibition at 16 µM (5-Lipoxygenase; RBL-1, Table 4, read-out: ARBL % inhibition (N @ 16)): < 40%

Compound: COC(=O)N(O)Cc1c(C)n(C(=O)c2ccc(Cl)cc2)c2ccc(OC)cc12 [Example 67, [[1-(4-Chlorobenzoyl)-5-methoxy-2-methyl-1H-indol-3-yl]methyl]hydroxycarbamic acid, methyl ester]
- IC50 (Cyclooxygenase; RBL-1 cells): 16 µM

Compound: COc1ccc2c(c1)c(CN(O)C(N)=O)c(C)n2C(=O)c1ccc(Cl)cc1 [Example 68, N-(Aminocarbonyl)-1-(4-chlorobenzoyl)-N-hydroxy-5-methoxy-2-methyl-1H-indole-3-methanamine]
- inhibition at 16 µM (5-Lipoxygenase; [1]): 98%

Compound: CNC(=O)N(O)Cc1c(C)n(C(=O)c2ccc(Cl)cc2)c2ccc(OC)cc12 [Example 69, 1-(4-Chlorobenzoyl)-N-hydroxy-5-methoxy-2-methyl-N-[(methylamino)carbonyl]-1H-indole-3-methanamine]
- IC50 (5-Lipoxygenase; RBL-1 cells): 2.5 µM

Compound: CCOC(=O)NC(=O)N(O)Cc1c(C)n(C(=O)c2ccc(Cl)cc2)c2ccc(OC)cc12 [Example 72, [[[[1-(4-Chlorobenzoyl)-5-methoxy-2-methyl-1H-indol-3-yl]methyl]hydroxyamino]carbonyl]carbamic acid, ethyl ester]
- inhibition at 16 µM (5-Lipoxygenase; [1]): 98%

Compound: CCOC(=O)CNC(=O)N(O)Cc1c(C)n(C(=O)c2ccc(Cl)cc2)c2ccc(OC)cc12 [Example 73, N-[[[[1-(4-Chlorobenzoyl)-5-methoxy-2-methyl-1H-indol-3-yl]methyl]hydroxyamino]carbonyl]glycine, ethyl ester]
- inhibition at 16 µM (5-Lipoxygenase; [1]): 100%

Source: US5112846A, “N-hydroxyamide, N-hydroxythioamide, hydroxyurea, and N-hydroxythiourea derivatives of selected nsaids as antiinflammatory agents” (Warner-Lambert Company, priority 1990, dated 1992)
